Source: publication PMC12591484 (PLOS One, 2025)

Assays:
Experiment in all cases: Drug protection from pCMBS modification (SCAMP)
Format in all cases: cell-based
Parameters in all cases: key: +: Mutant-function studies are deemed positive when bulky mutations (mostly tryptophans) at the site significantly reduce positive modulation by anesthetics; -: Negative results are indicated by “–“ symbols
[1] = target: T1, α1M236Cβ3γ2L GABAA receptors (Homo sapiens, UniProt P14867+P18507+P28472, M263C); details: results of this study (*); some cells also cite [9]
T1 construct: expressed in transfected cells; host or cells: Xenopus oocytes injected with capped mRNA, 1α:1β:5γ
Procedure: (§1) Experiments were performed in ND-96 buffer at room temperature (20–22°C). Oocytes were placed in a low-volume (30µl) flow chamber and impaled with borosilicate microelectrodes filled with 3M KCl (resistance 0.5–3 MΩ) and voltage-clamped at −50 mV (model OC-725C; Warner Instruments, Hamden, CT, USA). Superfusate solutions in ND-96 were delivered at 2 ml/min from glass syringe reservoirs via computer-controlled valves (VC-8; Warner Instruments), a micro-manifold (ALA-VM8; ALA Scientific Instruments, Farmingdale, NY, USA), and PTFE tubing. Currents were digitized at 200 Hz on a computer running ClampEx v8.0 software (Molecular Devices, San Jose, CA, USA). Digitized traces were filtered with a 10-Hz low-pass Bessel function, leak corrected and analyzed for peak amplitude off-line using Clampfit v8 software (Molecular Devices).
(§2) Drug protection from pCMBS modification was assessed under pCMBS exposure conditions that produced approximately half of the maximal modification ratio for each mutant receptor, and a least a value of 3. This approach balanced the magnitude of functional modification signals (smaller with less pCMBS exposure) against the challenge of using a reversibly bound ligand to competitively block an irreversible covalent cysteine-modifying reaction. […] Each oocyte was used in a single SCAMP experiment. […] Etomidate was used as a positive control for anesthetic protection in α1M236C and β3M286C mutants and as a negative control in α1S270C, α1A291C, β3L231C, γ2S301C, γ2I242C, and γ2L246C mutants. R-mTFD-MPAB was used as a positive control in α1S270C, α1A291C, β3L231C, and γ2LS301C mutants and as a negative control in α1M236C and β3M286C mutants. For each cysteine mutant and protective drug combination, five oocytes were studied.
(§3) Non-linear least squares fits and statistical analyses were performed in Prism 10.4.0. (GraphPad Software, San Diego, CA, USA). […] Protection (steric inhibition of pCMBS modification) was inferred when anesthetics produced significant reductions in modification ratios relative to control (no anesthetic) values. The statistical significance threshold was p < 0.05.

[2] = target: T2, α1β3M286Cγ2L GABAA receptors (Homo sapiens, UniProt P14867+P18507+P28472, M311C); details: results of this study (*); etomidate cell also cites [16]
T2 construct: expressed in transfected cells; host or cells: Xenopus oocytes injected with capped mRNA, 1α:1β:5γ
Procedure: as §1, §2, §3

[3] = target: T3, α1S270Cβ3γ2L GABAA receptors (Homo sapiens, UniProt P14867+P18507+P28472, S297C); details: results of this study (*)
T3 construct: expressed in transfected cells; host or cells: Xenopus oocytes injected with capped mRNA, 1α:1β:5γ
Procedure: as §1, §2, §3

T3 sequence (P14867 28-456 S297C): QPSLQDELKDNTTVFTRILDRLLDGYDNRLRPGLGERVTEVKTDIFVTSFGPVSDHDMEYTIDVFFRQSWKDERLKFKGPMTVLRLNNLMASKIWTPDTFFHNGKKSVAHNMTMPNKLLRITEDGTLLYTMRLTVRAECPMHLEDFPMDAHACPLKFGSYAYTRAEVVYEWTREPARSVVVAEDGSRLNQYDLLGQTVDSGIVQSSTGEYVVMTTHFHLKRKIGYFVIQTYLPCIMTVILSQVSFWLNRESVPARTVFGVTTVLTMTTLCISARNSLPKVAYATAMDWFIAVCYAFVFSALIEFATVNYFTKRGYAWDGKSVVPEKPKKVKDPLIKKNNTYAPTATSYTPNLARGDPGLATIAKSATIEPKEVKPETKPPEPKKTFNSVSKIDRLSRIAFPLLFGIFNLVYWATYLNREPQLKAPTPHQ
T3 sequence (P28472 26-473): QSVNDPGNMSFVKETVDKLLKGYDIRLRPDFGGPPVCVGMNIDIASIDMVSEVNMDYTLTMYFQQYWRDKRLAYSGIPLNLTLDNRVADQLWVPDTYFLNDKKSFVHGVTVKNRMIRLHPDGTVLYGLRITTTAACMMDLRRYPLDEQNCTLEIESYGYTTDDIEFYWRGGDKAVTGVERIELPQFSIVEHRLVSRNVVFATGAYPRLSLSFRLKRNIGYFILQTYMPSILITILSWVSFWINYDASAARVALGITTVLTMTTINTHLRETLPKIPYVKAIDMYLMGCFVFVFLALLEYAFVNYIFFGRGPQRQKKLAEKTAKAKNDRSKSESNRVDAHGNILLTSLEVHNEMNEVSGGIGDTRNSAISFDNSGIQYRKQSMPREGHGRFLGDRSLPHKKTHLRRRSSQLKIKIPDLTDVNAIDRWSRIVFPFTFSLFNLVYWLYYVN
T3 sequence (P18507 40-475): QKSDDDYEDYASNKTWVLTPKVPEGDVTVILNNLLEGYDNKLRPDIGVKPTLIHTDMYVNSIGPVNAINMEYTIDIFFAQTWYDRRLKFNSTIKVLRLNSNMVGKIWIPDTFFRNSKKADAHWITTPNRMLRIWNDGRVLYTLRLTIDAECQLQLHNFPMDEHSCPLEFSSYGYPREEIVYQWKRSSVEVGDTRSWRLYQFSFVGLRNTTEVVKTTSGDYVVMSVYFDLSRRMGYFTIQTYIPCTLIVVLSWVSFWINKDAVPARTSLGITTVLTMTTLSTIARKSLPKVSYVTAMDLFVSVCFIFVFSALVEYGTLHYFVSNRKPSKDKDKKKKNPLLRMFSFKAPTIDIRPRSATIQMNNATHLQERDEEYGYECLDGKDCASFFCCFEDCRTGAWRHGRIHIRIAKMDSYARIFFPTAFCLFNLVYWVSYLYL
T1 sequence (P14867 28-456 M263C): as the sequence (P14867 28-456 S297C) above, with M236C, C270S counted along it
T1 sequence (P28472 26-473): as the sequence (P28472 26-473) above
T1 sequence (P18507 40-475): as the sequence (P18507 40-475) above
T2 sequence (P14867 28-456): as the sequence (P14867 28-456 S297C) above, with C270S counted along it
T2 sequence (P28472 26-473 M311C): as the sequence (P28472 26-473) above, with M286C counted along it
T2 sequence (P18507 40-475): as the sequence (P18507 40-475) above

SMILES | SCAMP result, α1– (M1) M236 [1] | SCAMP result, β3+ (M2, M3) M286 [2] | SCAMP result, α1+ (M2, M3) S270 [3]
C=CCC1(c2cccc(C3(C(F)(F)F)N=N3)c2)C(=O)NC(=O)N(C)C1=O (stereo not drawn) [R-mTFD-MPAB, R-5-allyl-1-methyl-5-(m-trifluoromethyl-diazirynylphenyl) barbituric acid] | -^[9], * | -* | 
CCOC(=O)c1cncn1[C@H](C)c1ccccc1 [etomidate, R-etomidate] |  |  | -*
CC(C)c1cc(C2(C(F)(F)F)N=N2)cc(C(C)C)c1CO [pTFD-di-iPr-BnOH] | -* | -* | -*
